# Assay results: patent US12479825B2, “Melanocortin subtype-2 receptor (MC2R) antagonists and uses thereof” (Crinetics Pharmaceuticals, Inc., priority 2019, dated 2025)
# Target: T1, hMC2 receptor (Homo sapiens, UniProt Q01718)
# T1 construct: host or cells: CRE-bla-CHO-K1 cells, crude membrane fraction
# Assay: hMC2 membrane binding assay ([125I]ACTH (1-39) Tyr23, SPA)
# Conditions: crude hMC2R membranes from CRE-bla-CHO-K1 cells expressing hMC2 receptor and hMRAP; 0.2 nM [125I]ACTH (1-39) Tyr23; 1.5 hours at room temperature; read-out: MC2R binding potency
# Experimental: Crude membrane fractions are prepared from CRE-bla-CHO-K1 cells stably expressing hMC2 receptor and hMRAP accessory protein (Thermo Fisher). The cells are grown to 85-100% confluence on standard tissue culture dishes in GlutaMax DMEM growth media (Gibco) with following additives: 10% dialyzed FBS (Gemini), 0.1 mM NEAA (Gibco), 25 mM HEPES (Gibco), 5 μg/mL blasticidin (Goldbio), 100 μg/mL zeocin (Invitrogen), 600 μg/mL hygromycin (Goldbio). To prepare membranes, cells are scraped and collected in 1× Dulbecco's phosphate buffered saline (Corning) and then pelleted at 1000 RPM's. The cell pellet is reconstituted in membrane preparation buffer (20 mM HEPES, 6 mM MgCl2 and 1 mM EGTA, protease inhibitor tablets (Pierce) adjusted to pH 7.4), homogenized using a dounce homogenizer, and the resulting membrane fraction is pelleted by centrifugation at 12,000 RPM's. The membrane pellet is resuspended in membrane preparation buffer, snap freezed and stored at −80° C. for later use.
# The hMC2 membrane binding assay utilizes the following components: radiolabel [^125I]ACTH (1-39) Tyr23 (PerkinElmer), wheat germ agglutinin coated PVT SPA beads (PerkinElmer), crude hMC2R membranes, and compounds. Briefly hMC2R membranes are incubated with SPA beads in binding assay buffer (50 mM HEPES, 5 mM MgCl2, 1 mM CaCl2, 0.2% BSA, protease inhibitor tablets (Pierce) adjusted to pH7.4) prior to assay initiation. A dose response of compound (the final concentration of compound is typically 0-10,000 nM), SPA membranes, and [^125I]ACTH (1-39) Tyr23 at a final concentration of 0.2 nM is plated in a 96-well assay plate and allowed to incubate 1.5 hours at room temperature. Assay plates are read using a Top Count NXT and Ki values for compounds are determined using a GraphPad Prism 6 non-linear regression analysis.
# T1 sequence (Q01718 whole entry): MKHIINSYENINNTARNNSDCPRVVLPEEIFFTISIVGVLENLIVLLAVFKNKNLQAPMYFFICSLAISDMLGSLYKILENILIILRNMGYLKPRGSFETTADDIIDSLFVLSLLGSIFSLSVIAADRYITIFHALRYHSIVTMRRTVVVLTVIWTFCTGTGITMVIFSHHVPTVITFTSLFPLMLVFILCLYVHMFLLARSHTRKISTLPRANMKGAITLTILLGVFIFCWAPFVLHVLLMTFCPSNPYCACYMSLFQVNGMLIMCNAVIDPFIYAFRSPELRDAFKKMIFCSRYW
# T1 sequence (Q8TCY5 whole entry partner): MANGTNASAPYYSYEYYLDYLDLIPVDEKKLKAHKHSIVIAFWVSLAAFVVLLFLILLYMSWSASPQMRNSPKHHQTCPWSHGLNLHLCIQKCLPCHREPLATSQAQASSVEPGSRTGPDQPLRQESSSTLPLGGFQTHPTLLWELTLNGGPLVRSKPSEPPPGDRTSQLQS
row,Ki,SMILES
1,< 10 nM,"CCOc1ccc(O[C@@H]2CCN(c3ccc(-c4cccnc4OCC)nc3C(=O)N[C@@H]3CCN(C)C3)[C@H](C3CC3)C2)c(C(F)(F)F)n1 (racemic) [2-13, 5-[cis*-2-cyclopropyl-4-{[6-ethoxy-2-(trifluoromethyl)pyridin-3-yl]oxy}piperidin-1-yl]-2′-ethoxy-N-[(3R)-1-methylpyrrolidin-3-yl]-[2,3′-bipyridine]-6-carboxamide]"
2,< 10 nM,"CCOc1ncccc1-c1ccc(N2CC[C@@H](Oc3ccc(Cl)cc3C#N)C[C@H]2CC)c(C(=O)N[C@@H]2CCN(C)C2)n1 (single isomer, unassigned) [2-21]"
3,< 10 nM,"CCOc1ncccc1-c1ccc(N2CC[C@@H](Oc3ccc(Cl)cc3C(F)(F)F)C[C@H]2CC)c(C(=O)N[C@@H]2CCN(C)C2)n1 (single isomer, unassigned) [2-9, 5-[(2R,4R)*-4-[4-chloro-2-(trifluoromethyl)phenoxy]-2-ethylpiperidin-1-yl]-2′-ethoxy-N-[(3R)-1-methylpyrrolidin-3-yl]-[2,3′-bipyridine]-6-carboxamide]"
4,100 to 1000 nM,"CCOc1ncccc1-c1ccc(N2CCN(C(=O)c3ccc(F)cc3Cl)C[C@H]2CC)c(-c2nnc(N)[nH]2)n1 [4-3, (R)-(4-(6-(5-amino-4H-1,2,4-triazol-3-yl)-2′-ethoxy-[2,3′-bipyridin]-5-yl)-3-ethylpiperazin-1-yl)(2-chloro-4-fluorophenyl)methanone]"
5,10 to 100 nM,"CCOc1ncccc1-c1ccc(N2CC[C@@H](Oc3ccc(C(F)(F)F)cc3C#N)C[C@H]2CC)c(O[C@@H]2CCN(C)C2)n1 (mixture of isomers) [3-8, 2-{[rac-(2R,4R)-1-(2′-ethoxy-6-{[(3R)-1-methylpyrrolidin-3-yl]oxy}-[2,3′-bipyridin]-5-yl)-2-ethylpiperidin-4-yl]oxy}-5-(trifluoromethyl)benzonitrile]"

# Further lines, the compound ahead of its results:
row,SMILES,Ki
1,"CCOc1ncccc1-c1ccc(N2CCN(C(=O)N3CCc4cc(Cl)cc(C#N)c43)C[C@H]2CC)c(OCCNC)n1 [1-26, 5-chloro-1-[(3R)-4-{2′-ethoxy-6-[2-(methylamino)ethoxy]-[2,3′-bipyridin]-5-yl}-3-ethylpiperazine-1-carbonyl]-2,3-dihydro-1H-indole-7-carbonitrile]",< 10 nM
2,"CCOc1ncccc1-c1ccc(N2CCN(C(=O)C3(C(F)(F)F)CCCC3)C[C@H]2CC)c(O[C@@H]2CCN(C)C2)n1 [1-3, 2′-ethoxy-5-[(2R)-2-ethyl-4-[1-(trifluoromethyl)cyclopentanecarbonyl]piperazin-1-yl]-6-{[(3R)-1-methylpyrrolidin-3-yl]oxy}-2,3′-bipyridine]",10 to 100 nM
3,"CCOc1ncccc1-c1ccc(N2CCN(C(=O)N3CCc4cccc(C#N)c43)C[C@H]2CC)c(OCCN)n1 [1-24, 1-[(3R)-4-[6-(2-aminoethoxy)-2′-ethoxy-[2,3′-bipyridin]-5-yl]-3-ethylpiperazine-1-carbonyl]-2,3-dihydro-1H-indole-7-carbonitrile]",< 10 nM
4,"CCOc1ccc(C(=O)N2CCN(c3ccc(-c4cccnc4OCC)nc3O[C@H](C)CN)[C@H](CC)C2)c(C(F)(F)F)n1 [1-21, (2R)-2-({2′-ethoxy-5-[(2R)-4-[6-ethoxy-2-(trifluoromethyl)pyridine-3-carbonyl]-2-ethylpiperazin-1-yl]-[2,3′-bipyridin]-6-yl}oxy)propan-1-amine]",< 10 nM
5,"CCOc1ncccc1-c1ccc(N2CCN(C(=O)N3CCC[C@H]3C(F)(F)F)C[C@H]2CC)c(O[C@@H]2CCN(C)C2)n1 [1-4, 2′-ethoxy-5-[(2R)-2-ethyl-4-[(2S)-2-(trifluoromethyl)pyrrolidine-1-carbonyl]piperazin-1-yl]-6-{[(3R)-1-methylpyrrolidin-3-yl]oxy}-2,3′-bipyridine]",10 to 100 nM
6,"CCOc1ccc(C(=O)N2CCN(c3ccc(-c4cccnc4OCC)nc3O[C@@H](C)CN)[C@H](CC)C2)c(C(F)(F)F)n1 [1-22, (2S)-2-({2′-ethoxy-5-[(2R)-4-[6-ethoxy-2-(trifluoromethyl)pyridine-3-carbonyl]-2-ethylpiperazin-1-yl]-[2,3′-bipyridin]-6-yl}oxy)propan-1-amine]",< 10 nM
